Source: paper PMC10281575, “PfCRT mutations conferring piperaquine resistance in falciparum malaria shape the kinetics of quinoline drug binding and transport” (PLOS Pathogens, 2023)
“And” between values parts separate entries of the source, which are not always exact repeats. Equal entries are not always repeated. Where two headings read alike, the source gives them in different places.

Biological target: T1, PfCRT^Dd2 (Plasmodium falciparum, UniProt Q8IBZ9, A220S/I356T/K76T/M74I/N326S/N75E/Q271E/R371I)
T1 sequence (Q8IBZ9 1-424 M74I/N75E/K76T/A220S/Q271E/N326S/I356T/R371I): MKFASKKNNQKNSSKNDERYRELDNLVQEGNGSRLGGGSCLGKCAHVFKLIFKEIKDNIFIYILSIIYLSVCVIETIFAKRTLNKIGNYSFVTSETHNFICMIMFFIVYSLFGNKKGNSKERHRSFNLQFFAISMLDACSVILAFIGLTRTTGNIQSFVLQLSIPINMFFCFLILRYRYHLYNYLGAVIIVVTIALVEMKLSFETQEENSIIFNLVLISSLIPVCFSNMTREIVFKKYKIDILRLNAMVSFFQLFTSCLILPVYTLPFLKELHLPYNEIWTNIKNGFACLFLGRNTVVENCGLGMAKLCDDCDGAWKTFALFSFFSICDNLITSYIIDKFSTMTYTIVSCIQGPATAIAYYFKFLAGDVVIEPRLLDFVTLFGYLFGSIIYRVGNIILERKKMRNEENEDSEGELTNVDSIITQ
Experiment: Competition kinetics of drug transport (radiolabeled substrate plus cold inhibitor), PfCRT^Dd2-expressing oocytes
Format: cell-based
Set-up: expressed in transfected cells; host or cells: Xenopus laevis oocytes injected with in vitro transcribed RNA (pSP64T)
Details: for PfCRTDd2-mediated CQ transport 500 µM CQ: single replicates; for Vmax, maximal velocity of drug transport: global fit; for β, partiality factor: factor on transport of the labeled drug by the other drug
Description: The experimental procedure and the data analysis were as described above.
The difference between the two models lies in the value of α, a parameter describing how much the affinity for the substrate changes when the inhibitor is already bound, and vice versa. […] The resulting Vmax,app values and the Vmax,app/KM,app ratios were plotted as a function of the inhibitor concentration (Fig 5A).
Drug transport assays were performed as previously described. Briefly, measurements of radiolabeled drug uptake were made over 1 h, unless otherwise specified. […] Where specified, one or more unlabeled drugs were also present at the indicated concentrations. […] The uptake assays were terminated by removing the oocytes from the reaction medium and washing them three times with 2 mL of ice-cold ND96 buffer. Each oocyte was transferred to a separate scintillation vial and lysed by the addition of 200 μL of a 5% SDS solution. The radioactivity in the sample was measured using a liquid scintillation analyser Tri-Carb 4910 TR (PerkinElmer). Water-injected oocytes were analyzed in parallel as a negative control. The buffer from each condition was measured in duplicate in parallel to each experiment to transform counts per minute into pmol of drug. Drug uptake attributable to PfCRT was determined by subtracting the background uptake from water-injected oocytes from that of PfCRT-expressing oocytes. In all cases, at least three independent experiments were performed on oocytes from different frogs, and for each condition in an experiment, measurements were made from 10 oocytes per treatment.
The following equations were adopted from Segel (1993), and the reader is referred to that text for the assumptions made in the author’s approach in the derivation of each equation [31]. The concentration of substrate is denoted as [S1] and the concentration of the inhibiting substrate is denoted as [S2]. KS1 and KS2 are the dissociation constants for the respective substrate-protein complexes.
Analyses of the kinetic data were performed using SigmaPlot version 13.0 and Python. The drug competition models were globally fit to the kinetic data using the least-squares method and ranked according to their corrected Akaike information criterion difference (ΔAICC) and their Akaike weight, using Python. The two top-ranked models were compared using an F-test.
This factor reflects how much the affinity of the transporter for one drug changes when the other drug is already bound in the protein cavity. In the former model, α > 0 and α ≠ 1. In the latter model, it could be thought of as if α = 1. Because of this, discriminating between the two models also means determining the value of α. In Mixed-type (Partial) inhibition, the apparent maximal velocity (Vmax,app) is given by Eq 22, Vmax,app=Vmax(1+β[S2]/αKS2)/(1+[S2]/αKS2) (Eq 22)
Vmax,app is the maximal rate of substrate transport at a certain inhibitor concentration. The half-maximal inhibitory concentration is given by the term in the denominator different from [S2], which in this case is αKS2. This means that by plotting Vmax,app as a function of [S2], the value of αKS2 can be derived after fitting the curve to Eq 23.
The half-maximal inhibitory concentration derived from this hyperbolic equation is equal to KS2. By plotting Vmax,app/KM,app as a function of [S2], one can derive KS2 after fitting the curve to Eq 25. The value of α can then be calculated dividing αKS2 by KS2.

SMILES: CCN(CC)CCCC(C)Nc1ccnc2cc(Cl)ccc12 (stereo not shown) [CQ, chloroquine]
- PfCRTDd2-mediated CQ transport 500 µM CQ (0 µM PPQ): 25.01 pmol oocyte-1 h-1 and 21.69 pmol oocyte-1 h-1 and 19.19 pmol oocyte-1 h-1 and 20.87 pmol oocyte-1 h-1
- PfCRTDd2-mediated CQ transport 500 µM CQ (50 µM PPQ): 19.01 pmol oocyte-1 h-1 and 16.61 pmol oocyte-1 h-1 and 18.59 pmol oocyte-1 h-1
- PfCRTDd2-mediated CQ transport 500 µM CQ (125 µM PPQ): 18.10 pmol oocyte-1 h-1 and 16.11 pmol oocyte-1 h-1 and 15.06 pmol oocyte-1 h-1
- PfCRTDd2-mediated CQ transport 500 µM CQ (200 µM PPQ): 12.71 pmol oocyte-1 h-1 and 15.12 pmol oocyte-1 h-1 and 13.60 pmol oocyte-1 h-1
- PfCRTDd2-mediated CQ transport 500 µM CQ (350 µM PPQ): 12.41 pmol oocyte-1 h-1 and 14.97 pmol oocyte-1 h-1 and 10.99 pmol oocyte-1 h-1
- PfCRTDd2-mediated CQ transport 500 µM CQ (500 µM PPQ): 15.66 pmol oocyte-1 h-1 and 9.12 pmol oocyte-1 h-1 and 11.85 pmol oocyte-1 h-1
- most plausible inhibition model (16 models, ΔAICC, Akaike weight, F-test, label = cold inhibitor of the other drug's transport): partial noncompetitive inhibition
- Vmax, maximal velocity of drug transport (Mixed (Partial) model, drug as radiolabeled substrate): 33 ± 1 pmol oocyte^-1 h^-1
- Kd (Mixed (Partial) model, drug as cold inhibitor, read-out: KS, dissociation constant for the PfCRT-substrate complex): 210 ± 80 µM
- Kd (Mixed (Partial) model, drug as radiolabeled substrate, read-out: KS, dissociation constant for the PfCRT-substrate complex): 260 ± 25 µM
- β, partiality factor (Mixed (Partial) model): 0.38 ± 0.06
- α, KS interaction factor (Mixed (Partial) model, label = radiolabeled substrate, other drug cold inhibitor): 1.0 ± 0.2
- Vmax, maximal velocity of drug transport (Noncompetitive (Partial) model, drug as radiolabeled substrate, other drug as cold inhibitor): 32 pmol oocyte^-1 h^-1 and 32 ± 1 pmol oocyte^-1 h^-1
- Kd (Noncompetitive (Partial) model, drug as cold inhibitor, read-out: KS, dissociation constant for the PfCRT-substrate complex): 238 µM and 240 µM
- Kd (Noncompetitive (Partial) model, drug as radiolabeled substrate, read-out: KS, dissociation constant for the PfCRT-substrate complex): 254 µM and 250 µM
- β, partiality factor (Noncompetitive (Partial) model): 0.38 and 0.38 ± 0.04
- KMapp ([3H]CQ + PPQ) ([PPQ] 0 µM): 257.93 µM
- Vmaxapp ([3H]CQ + PPQ) ([PPQ] 0 µM): 32.70 pmol oocyte-1 h-1
- Vmaxapp/KMapp ([3H]CQ + PPQ) ([PPQ] 0 µM): 0.1268 h⁻¹
- KMapp ([3H]CQ + PPQ) ([PPQ] 50 µM): 250.37 µM
- Vmaxapp ([3H]CQ + PPQ) ([PPQ] 50 µM): 27.98 pmol oocyte-1 h-1
- Vmaxapp/KMapp ([3H]CQ + PPQ) ([PPQ] 50 µM): 0.1117 h⁻¹
- KMapp ([3H]CQ + PPQ) ([PPQ] 125 µM): 258.31 µM
- Vmaxapp ([3H]CQ + PPQ) ([PPQ] 125 µM): 25.60 pmol oocyte-1 h-1
- Vmaxapp/KMapp ([3H]CQ + PPQ) ([PPQ] 125 µM): 0.0991 h⁻¹
- KMapp ([3H]CQ + PPQ) ([PPQ] 200 µM): 254.40 µM
- Vmaxapp ([3H]CQ + PPQ) ([PPQ] 200 µM): 21.83 pmol oocyte-1 h-1
- Vmaxapp/KMapp ([3H]CQ + PPQ) ([PPQ] 200 µM): 0.0858 h⁻¹
- KMapp ([3H]CQ + PPQ) ([PPQ] 350 µM): 250.34 µM
- Vmaxapp ([3H]CQ + PPQ) ([PPQ] 350 µM): 19.75 pmol oocyte-1 h-1
- Vmaxapp/KMapp ([3H]CQ + PPQ) ([PPQ] 350 µM): 0.0789 h⁻¹
- KMapp ([3H]CQ + PPQ) ([PPQ] 500 µM): 247.83 µM
- Vmaxapp ([3H]CQ + PPQ) ([PPQ] 500 µM): 17.90 pmol oocyte-1 h-1
- Vmaxapp/KMapp ([3H]CQ + PPQ) ([PPQ] 500 µM): 0.0722 h⁻¹
- β^CQ, partiality factor (fractional velocity plot, factor by which PPQ slows down CQ transport): 0.35 ± 0.06
- Kd (secondary plot, half-maximum inhibitory concentration of Vmax,app versus inhibitor concentration, read-out: αKS, dissociation constant between the drug and the PfCRT complex with the other drug): 220 ± 85 µM
- α (αKS divided by KS) (secondary plots, label = prebound drug): 1.0 ± 0.3
